Our source for the % of control values is ChEMBL document CHEMBL5465560, “Selectivity Literature for EUbOPEN Chemogenomic Library” (2024).

What all share (conditions): at 10 µM
Test [1] deals with T1, Serine/threonine-protein kinase Nek9 (Homo sapiens) (UniProt Q8TD19).
T1 sequence (whole entry): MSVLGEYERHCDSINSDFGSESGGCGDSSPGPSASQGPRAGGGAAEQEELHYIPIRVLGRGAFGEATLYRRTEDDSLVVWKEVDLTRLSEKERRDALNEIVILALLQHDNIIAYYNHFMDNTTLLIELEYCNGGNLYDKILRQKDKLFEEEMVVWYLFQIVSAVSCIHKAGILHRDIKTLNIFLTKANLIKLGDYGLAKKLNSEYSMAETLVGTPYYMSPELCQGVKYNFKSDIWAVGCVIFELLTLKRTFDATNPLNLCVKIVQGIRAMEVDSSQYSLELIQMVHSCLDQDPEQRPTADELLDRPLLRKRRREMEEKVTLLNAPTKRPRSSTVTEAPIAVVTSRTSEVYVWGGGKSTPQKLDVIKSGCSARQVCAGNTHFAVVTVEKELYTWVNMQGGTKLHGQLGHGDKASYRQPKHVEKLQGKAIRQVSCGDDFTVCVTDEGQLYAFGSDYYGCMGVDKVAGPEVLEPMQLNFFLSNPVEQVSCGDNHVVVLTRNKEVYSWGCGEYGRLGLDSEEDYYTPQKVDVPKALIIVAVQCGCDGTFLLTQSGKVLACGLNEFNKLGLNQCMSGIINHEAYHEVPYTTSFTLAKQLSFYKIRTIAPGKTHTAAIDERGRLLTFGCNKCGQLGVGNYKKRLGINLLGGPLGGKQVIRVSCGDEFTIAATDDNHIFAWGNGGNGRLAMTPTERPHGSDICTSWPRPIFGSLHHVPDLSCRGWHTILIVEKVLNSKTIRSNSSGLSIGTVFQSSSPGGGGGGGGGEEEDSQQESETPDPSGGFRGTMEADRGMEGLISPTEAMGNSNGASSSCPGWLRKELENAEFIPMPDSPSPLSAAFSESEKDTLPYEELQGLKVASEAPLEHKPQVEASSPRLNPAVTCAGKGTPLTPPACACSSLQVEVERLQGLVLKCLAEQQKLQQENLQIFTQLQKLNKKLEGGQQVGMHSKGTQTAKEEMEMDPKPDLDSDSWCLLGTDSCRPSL

Test [2] addresses T2, Serine/threonine-protein kinase MAK (Homo sapiens) (UniProt P20794).
T2 sequence (whole entry): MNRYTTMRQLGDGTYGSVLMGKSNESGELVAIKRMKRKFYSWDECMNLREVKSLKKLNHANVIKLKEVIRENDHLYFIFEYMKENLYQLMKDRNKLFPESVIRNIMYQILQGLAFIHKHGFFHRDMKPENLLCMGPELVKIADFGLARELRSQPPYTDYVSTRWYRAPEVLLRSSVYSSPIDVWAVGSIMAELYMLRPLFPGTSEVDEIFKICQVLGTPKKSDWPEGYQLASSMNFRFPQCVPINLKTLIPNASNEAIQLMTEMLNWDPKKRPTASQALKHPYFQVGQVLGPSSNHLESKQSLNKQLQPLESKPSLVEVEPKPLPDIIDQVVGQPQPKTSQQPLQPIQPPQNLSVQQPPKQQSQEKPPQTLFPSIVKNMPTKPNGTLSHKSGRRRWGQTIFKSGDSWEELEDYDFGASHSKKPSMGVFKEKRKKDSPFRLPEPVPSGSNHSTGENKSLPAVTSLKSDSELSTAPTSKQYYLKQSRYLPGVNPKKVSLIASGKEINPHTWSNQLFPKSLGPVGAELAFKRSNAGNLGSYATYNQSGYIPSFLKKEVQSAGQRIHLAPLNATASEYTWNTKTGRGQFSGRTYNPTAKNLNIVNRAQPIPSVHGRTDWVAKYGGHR
Briefly: Selectivity interaction (KinomeScan (DiscoverX)) EUB0000655a MAK.

Test [3] deals with T3, Mitogen-activated protein kinase kinase kinase 19 (Homo sapiens) (UniProt Q56UN5).
T3 sequence (whole entry): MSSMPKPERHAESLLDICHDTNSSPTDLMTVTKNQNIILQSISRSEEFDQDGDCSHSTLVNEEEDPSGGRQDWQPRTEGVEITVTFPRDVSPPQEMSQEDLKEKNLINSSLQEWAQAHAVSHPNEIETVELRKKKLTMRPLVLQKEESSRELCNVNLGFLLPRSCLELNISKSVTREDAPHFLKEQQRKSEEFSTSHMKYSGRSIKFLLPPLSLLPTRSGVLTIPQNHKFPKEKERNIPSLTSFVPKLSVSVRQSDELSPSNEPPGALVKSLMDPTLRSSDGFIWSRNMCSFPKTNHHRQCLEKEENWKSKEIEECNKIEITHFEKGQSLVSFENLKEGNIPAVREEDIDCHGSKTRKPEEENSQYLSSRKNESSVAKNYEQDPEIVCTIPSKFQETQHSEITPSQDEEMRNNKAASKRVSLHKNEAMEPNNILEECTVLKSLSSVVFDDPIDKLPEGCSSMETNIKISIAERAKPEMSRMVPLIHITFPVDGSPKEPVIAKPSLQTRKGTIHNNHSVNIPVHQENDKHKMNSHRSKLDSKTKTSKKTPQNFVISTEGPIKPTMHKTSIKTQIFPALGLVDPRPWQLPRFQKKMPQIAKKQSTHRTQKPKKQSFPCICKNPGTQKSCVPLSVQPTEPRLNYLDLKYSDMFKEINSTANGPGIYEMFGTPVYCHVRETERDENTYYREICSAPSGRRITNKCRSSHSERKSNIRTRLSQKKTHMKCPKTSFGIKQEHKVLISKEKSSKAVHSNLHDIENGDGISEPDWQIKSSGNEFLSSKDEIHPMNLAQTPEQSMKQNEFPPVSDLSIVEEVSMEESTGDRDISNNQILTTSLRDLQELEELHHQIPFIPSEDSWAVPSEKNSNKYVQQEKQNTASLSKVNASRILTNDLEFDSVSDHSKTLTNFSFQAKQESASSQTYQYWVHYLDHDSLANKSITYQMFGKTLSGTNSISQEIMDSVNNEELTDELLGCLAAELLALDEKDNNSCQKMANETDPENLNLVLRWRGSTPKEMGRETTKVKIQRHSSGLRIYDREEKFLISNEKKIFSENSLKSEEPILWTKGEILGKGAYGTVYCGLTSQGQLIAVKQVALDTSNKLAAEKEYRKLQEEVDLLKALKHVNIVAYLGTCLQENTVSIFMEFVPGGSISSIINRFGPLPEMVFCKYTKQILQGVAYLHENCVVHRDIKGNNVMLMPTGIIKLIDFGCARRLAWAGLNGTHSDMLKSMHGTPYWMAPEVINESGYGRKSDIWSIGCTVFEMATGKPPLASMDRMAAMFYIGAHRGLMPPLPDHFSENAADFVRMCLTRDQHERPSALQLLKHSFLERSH
Briefly: Selectivity interaction (KinomeScan (DiscoverX)) EUB0000595a MAP3K19.

Regarding `CCN(CC)CCCCNc1ncc2cc(-c3cc(OC)cc(OC)c3)c(NC(=O)NC(C)(C)C)nc2n1`, in test [1], the % of control was 100%.

In test [2], `CN(C)CCOc1ccc(-c2nc(-c3ccncc3)c(-c3ccc4c(c3)CC/C4=N\O)[nH]2)cc1` displayed a % of control of 100%.

Consider `COCC(=O)NC/C=C/c1ccc2ncnc(Nc3ccc(Oc4ccc(C)nc4)c(C)c3)c2c1` [CP-724714], for which the % of control in test [3] was 100%.
